This is an account of results in paper PMC11207335, “In Vitro Metabolism and Transport Characteristics of Zastaprazan” (Pharmaceutics, 2024).

The subject of data set [1] is human, dog, monkey, mouse, and rat hepatocytes. The experiment in a line: In vitro metabolic profiling of JP-1366 in hepatocytes. It counts as in vitro ADME. The settings on record: 10 µM JP-1366, 60 min; H human, D dog, Mk monkey, M mouse, R rat. Here is the method:
Cryopreserved human, dog, monkey, mouse, and rat hepatocytes were purified and recovered according to the manufacturer’s protocol. […] The metabolic reaction in each sample well was quenched by adding 120 μL of ice-cold acetonitrile.
MS spectra were obtained in positive-ion mode using electrospray ionization under optimized conditions as follows: capillary temperature, 350 °C; sheath gas flow rate, 40 (arbitrary units); aux gas flow rate, 10 (arbitrary units); and aux gas heater temperature, 350 °C. Full MS scan with data-dependent MS/MS was performed from m/z 100 to m/z 1000.

The target of data set [2] is T1, human cDNA-expressed CYP2C19 (Homo sapiens, UniProt P33261).
T1 construct: purchased Corning Life Sciences
As to the kind of experiment: Enzyme kinetics of JP-1366 metabolism in cDNA-expressed CYP2C19. It counts as in vitro ADME. Here is the method: (§1) The reaction was initiated by adding 5 μL of NADPH-generating system in triplicate, and the mixture was further incubated for 30 min at 37 °C in a shaking water bath.
(§2) The concentrations of the metabolites were quantitated, and their formation rates (pmol/mg protein/min) were calculated by dividing the amounts of metabolites formed from the incubation with human liver microsomes and human cDNA-expressed CYP or UGT enzymes by the incubation time.

The target of data set [3] is T2, human cDNA-expressed CYP2C9 (Homo sapiens, UniProt P11712).
T2 construct: purchased Corning Life Sciences
As to the kind of experiment: Enzyme kinetics of JP-1366 metabolism in cDNA-expressed CYP2C9. Format: in vitro ADME. Here is the method:
as §1, §2

Another data set addresses H^+/K^+-ATPase (Homo sapiens, UniProt P20648). The conditions noted are these: read-out: IC50 for the H^+/K^+-ATPase inhibition; cited from earlier work.
For data set [4], the target named is T3, human cDNA-expressed CYP3A4 (Homo sapiens, UniProt P08684).
T3 construct: purchased Corning Life Sciences
As to the kind of experiment: Enzyme kinetics of JP-1366 metabolism in cDNA-expressed CYP3A4. Format: in vitro ADME. Here is the method:
as §1, §2

The subject of a further data set is CYP3A4/5. As to the kind of experiment: Combined contribution of CYP3A4/5 to formation of major JP-1366 metabolites. Format: in vitro ADME, human. The settings on record: sum of CYP3A4 and CYP3A5 contributions. Here is the method:
as §1, §2

The target of data set [5] is T4, human cDNA-expressed CYP3A5 (Homo sapiens, UniProt P20815).
T4 construct: purchased Corning Life Sciences
The experiment in a line: Enzyme kinetics of JP-1366 metabolism in cDNA-expressed CYP3A5. It counts as in vitro ADME. Here is the method: as §1, §2

For data set [6], the system named is histamine-stimulated gastric acid secretion. Details: method as in PMID 36504556. The settings on record: Heidenhain pouch dog model; cited from earlier work.
The next data set relates to human hepatocytes. The experiment in a line: Metabolic stability of JP-1366 in human hepatocytes. It counts as in vitro ADME. The settings on record: human hepatocytes. Here is the method:
(§3) According to the manufacturer’s protocol, cryopreserved human, dog, monkey, mouse, and rat hepatocytes were purified and recovered. […] The metabolic reaction in each sample well was quenched by adding 120 μL of ice-cold acetonitrile.
(§4) Log-transformed relative responses of JP-1366 were plotted against incubation time, thereby obtaining the elimination slope (k) from the linear regression analysis. […] (1) t1 /2(min)=ln2/kelimination slope (2) Clint(mL/min/kg)=ln2/t1/2×mL incubation/hepatocyte (10^6 cells)×B×10^6 cells/g liver×A g liver/kg BW (3) Clhep(mL/min/kg)=Qh×Clint/Qh+Clint (4) HER=Clhep/Qh
(§5) Here, A means the liver weight parameters and has values of 25.7, 32, 30, 87.5, and 40; B means the cell number parameters and has values of 139, 215, 120, 135, and 117; Qh represents hepatic blood flow and has values of 20.7, 30.9, 43.6, 90, and 55.2 mL/min/kg for humans, dogs, monkeys, mice, and rats, respectively. Hepatic extraction ratios (HERs) of ≤0.25, 0.25–0.75, and ≥0.75 were regarded as low, moderate, and high, respectively.

Assay in data set [7]: as above
Format: in vitro ADME. The settings on record: cryopreserved human hepatocytes. Here is the method:
as §3, §4, §5

In another data set the test system is Cl^- channel. The experiment in a line: BioPrint profiling, Cl- channel. The conditions noted are these: BioPrint profiling (Eurofins CEREP).
For data set [8] the following is noted: cited from earlier work.
A further data set relates to mouse hepatocytes. The experiment in a line: Metabolic stability of JP-1366 in mouse hepatocytes. The settings on record: mouse hepatocytes. It counts as in vitro ADME. Here is the method: as §3, §4, §5
Assay in data set [9]: as above
The settings on record: cryopreserved mouse hepatocytes. It counts as in vitro ADME. Here is the method: as §3, §4, §5

Another data set concerns GERD lesion. The settings on record: rats, compared with vonoprazan; cited from earlier work.
A further data set relates to gastric acid secretion. The settings on record: lumen-perfused rat model, among JP-1366, vonoprazan, and tegoprazan; cited from earlier work.
The test system of the next data set is rat hepatocytes. The experiment in a line: Metabolic stability of JP-1366 in rat hepatocytes. Format: in vitro ADME. The conditions noted are these: rat hepatocytes. Here is the method: as §3, §4, §5
Data set [10] in a line: Metabolic stability of JP-1366 in rat hepatocytes. It counts as in vitro ADME. The conditions noted are these: cryopreserved rat hepatocytes. Here is the method:
as §3, §4, §5

A further data set has as its system monkey hepatocytes. The experiment in a line: Metabolic stability of JP-1366 in monkey hepatocytes. Format: in vitro ADME. The settings on record: monkey hepatocytes. Here is the method:
as §3, §4, §5

Assay in data set [11]: as above
Format: in vitro ADME. The conditions noted are these: cryopreserved monkey hepatocytes. Here is the method:
as §3, §4, §5

The test system of a further data set is dog hepatocytes. The experiment in a line: Metabolic stability of JP-1366 in dog hepatocytes. It counts as in vitro ADME. The settings on record: dog hepatocytes. Here is the method:
as §3, §4, §5

Data set [12] is described as follows: Metabolic stability of JP-1366 in dog hepatocytes. The settings on record: cryopreserved dog hepatocytes. It counts as in vitro ADME. Here is the method: as §3, §4, §5
Where [13] appears, read: formation of the labelled metabolite from JP-1366, CYP2C19.
Setting [14] is: formation of the labelled metabolite from JP-1366, CYP2C9.
Setting [15] is: formation of the labelled metabolite from JP-1366, CYP3A4.
[16] abbreviates: formation of the labelled metabolite from JP-1366, CYP3A5.

T1 sequence (P33261 whole entry): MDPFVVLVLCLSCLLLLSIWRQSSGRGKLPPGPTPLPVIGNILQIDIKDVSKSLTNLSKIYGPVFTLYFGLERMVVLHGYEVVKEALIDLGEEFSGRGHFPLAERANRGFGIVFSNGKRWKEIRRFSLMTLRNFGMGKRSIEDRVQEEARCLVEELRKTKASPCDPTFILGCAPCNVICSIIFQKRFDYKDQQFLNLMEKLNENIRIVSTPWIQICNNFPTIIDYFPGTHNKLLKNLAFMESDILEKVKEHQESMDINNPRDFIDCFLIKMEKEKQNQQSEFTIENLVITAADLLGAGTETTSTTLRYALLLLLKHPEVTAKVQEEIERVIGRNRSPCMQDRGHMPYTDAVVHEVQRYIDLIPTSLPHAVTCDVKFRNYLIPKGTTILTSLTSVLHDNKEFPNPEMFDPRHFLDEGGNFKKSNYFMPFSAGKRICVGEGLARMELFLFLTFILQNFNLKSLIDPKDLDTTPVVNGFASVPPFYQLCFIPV
T4 sequence (P20815 whole entry): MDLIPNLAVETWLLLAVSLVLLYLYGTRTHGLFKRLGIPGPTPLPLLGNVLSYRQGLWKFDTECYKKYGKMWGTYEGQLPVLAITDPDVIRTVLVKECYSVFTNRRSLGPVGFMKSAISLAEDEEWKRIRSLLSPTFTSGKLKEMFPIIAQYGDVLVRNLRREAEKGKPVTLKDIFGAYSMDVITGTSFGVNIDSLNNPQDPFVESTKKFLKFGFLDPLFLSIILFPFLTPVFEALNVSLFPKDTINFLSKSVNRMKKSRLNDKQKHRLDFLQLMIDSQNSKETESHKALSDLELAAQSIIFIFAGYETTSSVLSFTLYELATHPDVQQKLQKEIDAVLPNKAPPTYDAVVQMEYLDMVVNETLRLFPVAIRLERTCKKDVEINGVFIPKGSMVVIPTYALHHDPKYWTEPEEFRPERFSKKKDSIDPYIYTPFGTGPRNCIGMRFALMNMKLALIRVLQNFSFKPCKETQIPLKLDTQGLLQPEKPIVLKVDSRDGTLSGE
T3 sequence (P08684 whole entry): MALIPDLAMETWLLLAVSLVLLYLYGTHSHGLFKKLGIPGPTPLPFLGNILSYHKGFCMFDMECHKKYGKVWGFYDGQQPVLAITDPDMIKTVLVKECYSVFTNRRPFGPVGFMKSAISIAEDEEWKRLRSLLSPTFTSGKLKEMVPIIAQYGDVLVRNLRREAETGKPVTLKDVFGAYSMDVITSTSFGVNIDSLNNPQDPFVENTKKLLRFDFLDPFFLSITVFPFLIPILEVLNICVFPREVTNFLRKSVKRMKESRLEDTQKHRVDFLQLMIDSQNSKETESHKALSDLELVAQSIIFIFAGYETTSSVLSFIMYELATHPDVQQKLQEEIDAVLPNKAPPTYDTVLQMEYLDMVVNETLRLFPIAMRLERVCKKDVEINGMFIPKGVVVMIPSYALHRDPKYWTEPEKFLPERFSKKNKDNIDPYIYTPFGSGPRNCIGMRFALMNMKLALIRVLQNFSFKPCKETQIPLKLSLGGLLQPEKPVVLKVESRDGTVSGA
T2 sequence (P11712 whole entry): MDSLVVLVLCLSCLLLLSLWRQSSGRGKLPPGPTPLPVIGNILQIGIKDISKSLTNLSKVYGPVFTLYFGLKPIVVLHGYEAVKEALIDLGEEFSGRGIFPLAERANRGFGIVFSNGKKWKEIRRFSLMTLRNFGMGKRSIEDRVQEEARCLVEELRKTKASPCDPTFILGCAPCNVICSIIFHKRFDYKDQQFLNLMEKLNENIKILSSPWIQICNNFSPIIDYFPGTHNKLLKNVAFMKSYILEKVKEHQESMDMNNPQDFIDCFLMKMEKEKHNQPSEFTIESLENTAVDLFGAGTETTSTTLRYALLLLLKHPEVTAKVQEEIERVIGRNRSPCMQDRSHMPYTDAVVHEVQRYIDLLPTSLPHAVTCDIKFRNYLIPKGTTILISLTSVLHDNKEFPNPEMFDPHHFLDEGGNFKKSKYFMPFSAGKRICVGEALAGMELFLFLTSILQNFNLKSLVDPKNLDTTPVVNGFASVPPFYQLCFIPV
Chain of H^+/K^+-ATPase (P20648 whole entry): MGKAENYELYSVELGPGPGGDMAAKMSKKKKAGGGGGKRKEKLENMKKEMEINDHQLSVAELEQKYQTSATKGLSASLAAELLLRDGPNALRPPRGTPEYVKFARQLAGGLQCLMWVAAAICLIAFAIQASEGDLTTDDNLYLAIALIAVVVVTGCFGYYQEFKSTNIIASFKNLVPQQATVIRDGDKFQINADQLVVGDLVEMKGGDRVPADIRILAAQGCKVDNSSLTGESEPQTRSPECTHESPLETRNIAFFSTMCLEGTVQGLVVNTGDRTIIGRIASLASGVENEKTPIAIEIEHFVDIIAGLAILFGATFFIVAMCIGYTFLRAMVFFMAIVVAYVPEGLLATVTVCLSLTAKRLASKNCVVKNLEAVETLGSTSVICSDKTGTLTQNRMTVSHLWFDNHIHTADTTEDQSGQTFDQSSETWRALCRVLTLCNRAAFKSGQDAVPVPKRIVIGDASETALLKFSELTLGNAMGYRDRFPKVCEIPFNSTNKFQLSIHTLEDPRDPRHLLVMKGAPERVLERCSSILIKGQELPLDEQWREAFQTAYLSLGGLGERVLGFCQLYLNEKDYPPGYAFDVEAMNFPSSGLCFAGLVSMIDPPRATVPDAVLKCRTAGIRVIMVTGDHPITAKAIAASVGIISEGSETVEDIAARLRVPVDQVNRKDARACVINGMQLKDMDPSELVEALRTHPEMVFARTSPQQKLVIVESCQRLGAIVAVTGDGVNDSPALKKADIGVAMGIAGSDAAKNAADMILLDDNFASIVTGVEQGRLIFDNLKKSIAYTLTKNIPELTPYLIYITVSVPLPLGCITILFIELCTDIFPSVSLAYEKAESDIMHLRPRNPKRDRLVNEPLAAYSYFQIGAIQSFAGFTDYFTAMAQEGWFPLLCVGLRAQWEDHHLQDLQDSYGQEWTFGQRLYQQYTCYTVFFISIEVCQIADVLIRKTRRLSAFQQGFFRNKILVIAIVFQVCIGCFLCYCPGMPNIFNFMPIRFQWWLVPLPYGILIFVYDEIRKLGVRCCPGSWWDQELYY
Chain of H^+/K^+-ATPase (P51164 whole entry partner): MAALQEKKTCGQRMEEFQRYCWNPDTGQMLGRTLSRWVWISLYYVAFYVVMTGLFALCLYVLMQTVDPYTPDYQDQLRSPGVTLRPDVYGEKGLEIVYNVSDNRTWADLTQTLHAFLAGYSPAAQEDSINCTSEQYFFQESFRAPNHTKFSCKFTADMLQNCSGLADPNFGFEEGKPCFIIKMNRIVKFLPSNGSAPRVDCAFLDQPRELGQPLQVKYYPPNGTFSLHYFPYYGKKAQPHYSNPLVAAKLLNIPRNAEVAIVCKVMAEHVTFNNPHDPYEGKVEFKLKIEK

For the compound `Cc1cccc(CO)c1CNc1cc(C(=O)N2CCC2)cn2c(C)c(C)nc12` [M1, azetidin-1-yl(8-((2-(hydroxymethyl)-6-methyl-benzyl)amino)-2,3-dimethylimidazo[1,2-a]pyridin-6-yl)methanone], in data set [1], the “Hepatocytes (species in which the metabolite was found)” value is “H, D, Mk, M, R”. The CLint in data set [2] (setting [13]) is given as 0.068 μL/min/pmol CYP; in data set [3] (setting [14]) it was 0.14 μL/min/pmol CYP; in [4] (setting [15]) it was 0.35 μL/min/pmol CYP; in data set [5] (setting [16]), 0.33 μL/min/pmol CYP. Further, the “n (Hill coefficient)” value in [2] (setting [13]) amounted to 1.6; in data set [3] (setting [14]), 1.2; in [4] (setting [15]), 2.9; in data set [5] (setting [16]), 1.5. Moreover, the “Contribution (%)” value is 0.1% in data set [2] (relative contribution of CYP2C19 to formation of the labelled metabolite), 10.3% in [3] (relative contribution of CYP2C9 to formation of the labelled metabolite), 17.3% in data set [4] (relative contribution of CYP3A4 to formation of the labelled metabolite) and 68.6% in [5] (relative contribution of CYP3A5 to formation of the labelled metabolite). Moreover, the IC50 at H^+/K^+-ATPase is 66.5 nM. Further, the “contribution of CYP3A4/5 to formation of the metabolite from JP-1366” value in the data set with CYP3A4/5 stood at 85.9%.

As to `Cc1cccc(C)c1CNc1cc(C(=O)N2CCC2)cn2c(C)c(C)nc12` [JP-1366, 1-azetidinyl(8-(((2,6-dimethylphenyl)methyl)amino)-2,3-dimethylimidazo(1,2-a)pyridin-6-yl)methanone], the “inhibition of histamine-stimulated gastric acid secretion” value in [6] is given as “equal to or higher than vonoprazan”. Moreover, the CLhep in the data set on human hepatocytes worked out at 16.3 mL/min/kg; in the data set with mouse hepatocytes it was 75.3 mL/min/kg; with rat hepatocytes it was 39.4 mL/min/kg; in the data set with monkey hepatocytes, 31.1 mL/min/kg; in the data set with dog hepatocytes it was 25.6 mL/min/kg. Further, the HER with human hepatocytes was 0.79; with mouse hepatocytes, 0.84; with rat hepatocytes, 0.71; in the data set with monkey hepatocytes it was 0.72; with dog hepatocytes, 0.83. The CLint scaled at 1 µM was determined as 77.5 mL/min/kg in data set [7] (human hepatocytes, scaled with physiological parameters); 461 mL/min/kg in [9] (mouse hepatocytes, scaled with physiological parameters); 138 mL/min/kg in data set [10] (rat hepatocytes, scaled with physiological parameters); 110 mL/min/kg in data set [11] (monkey hepatocytes, scaled with physiological parameters); 150 mL/min/kg in data set [12] (dog hepatocytes, scaled with physiological parameters). In addition, the half-life at 1 µM was determined as 63.9 min in data set [7] (human); 59.2 min in [9] (mouse); 47.1 min in data set [10] (rat); 48.4 min in data set [11] (monkey); 63.5 min in data set [12] (dog). In the data set with Cl^- channel, the IC50 was 910 nM. In addition, in data set [8] (SAD up to 60 mg, MAD up to 40 mg, healthy male Korean subjects), the safety and tolerability entry was “safe and well tolerated”. Besides, the “dose-normalized AUC among genetic variants of CYP2C19, CYP3A5, CYP2D6, UGT1A1, and UGT2B17” value in data set [8] is listed as “not significantly different”. The “GERD lesion inhibition rates” value in the data set with GERD lesion was “greater GERD lesion inhibition rates”. Moreover, the “gastric acid secretion inhibitory effect” value with gastric acid secretion was “fastest-acting and superior gastric acid secretion inhibitory effect”.

For orientation: CLint scaled means the rate of metabolic loss divided by the concentration. For orientation: half-life means the time needed for the level to fall by half in the phase considered.
